Test results as given in patent US20250361230A1, “LATS Inhibitors and Uses Thereof” (The USA, as Represented by the Secretary, Dept. of Heath …, priority 2022, published 2025).

Target: T1, LATS1 (Homo sapiens, UniProt O95835)
T1 sequence (O95835 1-1130): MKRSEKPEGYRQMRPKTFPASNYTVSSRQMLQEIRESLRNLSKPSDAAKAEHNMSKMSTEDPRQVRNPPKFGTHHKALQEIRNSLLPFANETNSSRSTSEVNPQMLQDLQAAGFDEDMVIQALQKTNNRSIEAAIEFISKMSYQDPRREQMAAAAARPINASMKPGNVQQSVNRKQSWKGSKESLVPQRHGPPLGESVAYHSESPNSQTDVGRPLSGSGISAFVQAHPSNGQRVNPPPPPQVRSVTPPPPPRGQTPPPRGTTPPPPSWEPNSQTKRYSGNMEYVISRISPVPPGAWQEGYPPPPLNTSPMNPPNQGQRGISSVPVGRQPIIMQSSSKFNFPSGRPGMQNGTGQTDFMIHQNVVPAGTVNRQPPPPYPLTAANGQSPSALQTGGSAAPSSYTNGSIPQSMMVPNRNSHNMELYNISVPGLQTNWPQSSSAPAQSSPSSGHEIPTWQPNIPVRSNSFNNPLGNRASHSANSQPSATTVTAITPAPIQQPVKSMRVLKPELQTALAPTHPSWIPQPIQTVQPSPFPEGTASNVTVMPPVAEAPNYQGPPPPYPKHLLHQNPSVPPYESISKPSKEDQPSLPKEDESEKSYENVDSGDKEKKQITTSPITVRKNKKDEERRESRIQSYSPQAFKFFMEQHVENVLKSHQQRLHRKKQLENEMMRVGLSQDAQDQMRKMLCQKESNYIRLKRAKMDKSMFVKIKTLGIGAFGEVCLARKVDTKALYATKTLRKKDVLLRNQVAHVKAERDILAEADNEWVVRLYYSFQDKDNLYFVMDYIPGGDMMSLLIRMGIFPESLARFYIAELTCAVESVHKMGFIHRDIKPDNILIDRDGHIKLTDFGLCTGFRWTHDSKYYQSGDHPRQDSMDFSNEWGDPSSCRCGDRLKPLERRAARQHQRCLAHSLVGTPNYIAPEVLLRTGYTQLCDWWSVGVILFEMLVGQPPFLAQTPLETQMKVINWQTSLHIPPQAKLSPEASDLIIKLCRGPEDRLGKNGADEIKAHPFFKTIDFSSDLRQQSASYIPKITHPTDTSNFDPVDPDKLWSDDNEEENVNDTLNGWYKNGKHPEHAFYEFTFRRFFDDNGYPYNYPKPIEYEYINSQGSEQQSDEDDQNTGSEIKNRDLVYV
Assay: RBC HotSpot kinase assay (33P-ATP, P81 filter-binding), LATS1
Type: biochemical
Settings: Table 28, biochemical kinase assay; read-out: LATS1 IC50
Procedure, shortened: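 Kinase in Hepes pH 7.5 buffer with Mg2+, EGTA, Brij35, BSA, vanadate, DTT and 1% DMSO, plus required cofactors and substrate, was preincubated 20 min at room temperature with compound. Reaction was started with 33P-ATP and run 2 h, then detected by P81 filter binding. IC50 (nM) came from 10-point singlet curves.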

IC50 [nM]	SMILES
4.9	C[C@@H]1CN(C2CCNCC2)C[C@H](C)[C@@]1(O)c1c(F)cc(-c2ccnc3[nH]cc(F)c23)cc1F [Compound 90, (3R,4s,5S)-4-(2,6-difluoro-4-(3-fluoro-1H-pyrrolo[2,3-b]pyridin-4-yl)phenyl)-3,5-dimethyl-[1,4′-bipiperidin]-4-ol]
22	OC1(c2ccc(-c3ccnc4[nH]ccc34)cc2)CCNCC1 [Compound 111, 4-(4-(1H-pyrrolo[2,3-b]pyridin-4-yl)phenyl)piperidin-4-ol]
5.9	Cc1cc(-c2ccnc3[nH]cc(F)c23)cc(F)c1C1(O)CC2(CN(C3COC3)C2)C1 [Compound 139, 6-(2-fluoro-4-(3-fluoro-1H-pyrrolo[2,3-b]pyridin-4-yl)-6-methylphenyl)-2-(oxetan-3-yl)-2-azaspiro[3.3]heptan-6-ol]
7.8	O=C([C@H]1CCCN1)N1CCC(O)(c2ccc(-c3ccnc4[nH]cc(F)c34)cc2)CC1 [Compound 142]
9.6	Fc1c[nH]c2nccc(-c3ccc(C4CCNCC4)c(Cl)c3)c12 [Compound 172, 4-(3-chloro-4-(piperidin-4-yl)phenyl)-3-fluoro-1H-pyrrolo[2,3-b]pyridine]
7.2	Clc1c[nH]c2nccc(-c3ccc(C4CCNCC4)cc3)c12 [Compound 173, 3-chloro-4-(4-(piperidin-4-yl)phenyl)-1H-pyrrolo[2,3-b]pyridine]
11	Cc1cc(-c2ccnc3[nH]ccc23)ccc1C1CCNCC1 [Compound 177, 4-(3-methyl-4-(piperidin-4-yl)phenyl)-1H-pyrrolo[2,3-b]pyridine]
25	c1cc(-c2ccc(C3CC4CCC(C3)N4)cc2)c2cc[nH]c2n1 (stereo not shown) [Compound 184, 4-(4-(8-azabicyclo[3.2.1]octan-3-yl)phenyl)-1H-pyrrolo[2,3-b]pyridine]
66.1	CC1CC(c2ccc(-c3ccnc4[nH]ccc34)cc2)CC(C)N1 (stereo not shown) [Compound 187, 4-(4-(2,6-dimethylpiperidin-4-yl)phenyl)-1H-pyrrolo[2,3-b]pyridine]
59	CC1(c2ccc(-c3ccnc4[nH]ccc34)cc2)CCNCC1 [Compound 201, 4-(4-(4-methylpiperidin-4-yl)phenyl)-1H-pyrrolo[2,3-b]pyridine]
3.7	Cc1cc(-c2ccnc3[nH]cc(F)c23)ccc1CN [Compound 211, (4-(3-fluoro-1H-pyrrolo[2,3-b]pyridin-4-yl)-2-methylphenyl) methanamine]
39	NCc1ccc(-c2ccnc3[nH]cc(-c4ccccc4)c23)cc1-c1ccccc1 [Compound 219, (5-(3-phenyl-1H-pyrrolo[2,3-b]pyridin-4-yl)-[1,1′-biphenyl]-2-yl)methanamine]
27.4	COC(=O)c1c[nH]c2nccc(-c3ccc(CN)cc3)c12 [Compound 223, methyl 4-(4-(aminomethyl)phenyl)-1H-pyrrolo[2,3-b]pyridine-3-carboxylate]
17	Cc1cccc(-c2c[nH]c3nccc(-c4ccc(CN)cc4)c23)c1 [Compound 230, (4-(3-(m-tolyl)-1H-pyrrolo[2,3-b]pyridin-4-yl)phenyl) methanamine]
1.1	CC(C)(N)c1ccc(-c2ccnc3[nH]cc(F)c23)cc1 [Compound 238, 2-(4-(3-fluoro-1H-pyrrolo[2,3-b]pyridin-4-yl)phenyl)propan-2-amine]
12	NCc1ccc(-c2ccnc3[nH]cc(-c4cccnc4)c23)cc1 [Compound 245, (4-(3-(pyridin-3-yl)-1H-pyrrolo[2,3-b]pyridin-4-yl)phenyl) methanamine]
13	NCc1ccc(-c2ccnc3[nH]cc(-c4ccccc4)c23)cc1 [Compound 253, (4-(3-phenyl-1H-pyrrolo[2,3-b]pyridin-4-yl)phenyl) methanamine]
3.4	Cc1cc(-c2ccnc3[nH]cc(Cl)c23)ccc1CN [Compound 254, (4-(3-chloro-1H-pyrrolo[2,3-b]pyridin-4-yl)-2-methylphenyl) methanamine]
6	Cc1cc(-c2ccnc3[nH]ccc23)ccc1CN [Compound 266, (2-methyl-4-(1H-pyrrolo[2,3-b]pyridin-4-yl)phenyl) methanamine]
11	c1cc(-c2ccc3c(c2)CCNC3)c2cc[nH]c2n1 [Compound 267, 6-(1H-pyrrolo[2,3-b]pyridin-4-yl)-1,2,3,4-tetrahydroiso-quinoline]
20	c1cc(-c2ccc(C3CCCCN3)cc2)c2cc[nH]c2n1 (stereo not shown) [Compound 271, 4-(4-(piperidin-2-yl)phenyl)-1H-pyrrolo[2,3-b]pyridine]
13	NCc1ccc(-c2ccnc3[nH]cc(F)c23)cc1 [Compound 275, (4-(3-fluoro-1H-pyrrolo[2,3-b]pyridin-4-yl)phenyl) methanamine]
12	NCc1ccc(-c2ccnc3[nH]cc(Cl)c23)cc1 [Compound 276, (4-(3-chloro-1H-pyrrolo[2,3-b]pyridin-4-yl)phenyl) methanamine]
10	NCc1ccc(-c2ccnc3[nH]ccc23)cc1C(F)(F)F [Compound 284, (4-(1H-pyrrolo[2,3-b]pyridin-4-yl)-2-(trifluoromethyl)phenyl) methanamine]
23	NCc1ccc(-c2ccnc3[nH]ccc23)cc1 [Compound 287, (4-(1H-pyrrolo[2,3-b]pyridin-4-yl)phenyl) methanamine]
3.1	COC(=O)c1c[nH]c2nccc(-c3cc(C)c([C@@]4(O)[C@H](C)CN(C5CCS(=O)(=O)CC5)C[C@@H]4C)c(F)c3)c12 [Compound 309, methyl 4-(4-((3S,4s,5R)-1-(1,1-dioxidotetrahydro-2H-thiopyran-4-yl)-4-hydroxy-3,5-dimethylpiperidin-4-yl)-3-fluoro-5-methylphenyl)-1H-pyrrolo[2,3-b]pyridine-3-carboxylate]
5.1	COC(=O)c1c[nH]c2nccc(-c3cc(C)c([C@@]4(O)[C@H](C)CN(C(=O)CN)C[C@@H]4C)c(F)c3)c12 [Compound 310, methyl 4-(3-fluoro-4-((3S,4s,5R)-1-glycyl-4-hydroxy-3,5-dimethylpiperidin-4-yl)-5-methylphenyl)-1H-pyrrolo[2,3-b]pyridine-3-carboxylate]
8.1	Cc1cc(-c2ccnc3[nH]cc(F)c23)cc(F)c1[C@@]1(O)[C@H](C)CN(C(=O)[C@H](N)CO)C[C@@H]1C [Compound 312, (R)-2-amino-1-((3S,4R,5R)-4-(2-fluoro-4-(3-fluoro-1H-pyrrolo[2,3-b]pyridin-4-yl)-6-methylphenyl)-4-hydroxy-3,5-dimethylpiperidin-1-yl)-3-hydroxypropan-1-one]
4.4	Cc1cc(-c2ccnc3[nH]cc(F)c23)cc(F)c1[C@@]1(O)[C@H](C)CN(C(=O)[C@@H](CO)N(C)C)C[C@@H]1C [Compound 313, (R)-2-(dimethylamino)-1-((3S,4S,5R)-4-(2-fluoro-4-(3-fluoro-1H-pyrrolo[2,3-b]pyridin-4-yl)-6-methylphenyl)-4-hydroxy-3,5-dimethylpiperidin-1-yl)-3-hydroxypropan-1-one]

SMILES	IC50 [nM]
OC1(c2ccc(-c3ccnc4[nH]cc(F)c34)cc2)CCNCC1 [Compound 110, 4-(4-(3-fluoro-1H-pyrrolo[2,3-b]pyridin-4-yl)phenyl)piperidin-4-ol]	5.7
Fc1c[nH]c2nccc(-c3ccc(C4CCNCC4)cc3)c12 [Compound 169, 3-fluoro-4-(4-(piperidin-4-yl)phenyl)-1H-pyrrolo[2,3-b]pyridine]	15
Cc1cc(-c2ccnc3[nH]cc(F)c23)cc(F)c1[C@@]1(O)[C@H](C)CN(C)C[C@@H]1C [Compound 304, (3S,4s,5R)-4-(2-fluoro-4-(3-fluoro-1H-pyrrolo[2,3-b]pyridin-4-yl)-6-methylphenyl)-1,3,5-trimethylpiperidin-4-ol]	5.1
Cc1cc(-c2ccnc3[nH]cc(F)c23)cc(F)c1[C@@]1(O)[C@H](C)CN(C(C)C)C[C@@H]1C [Compound 305, (3S,4s,5R)-4-(2-fluoro-4-(3-fluoro-1H-pyrrolo[2,3-b]pyridin-4-yl)-6-methylphenyl)-1-isopropyl-3,5-dimethylpiperidin-4-ol]	4.1
OC1(c2ccc(-c3ccnc4[nH]cc(F)c34)cc2)CC2(CNC2)C1 [Compound 319, 6-(4-(3-fluoro-1H-pyrrolo[2,3-b]pyridin-4-yl)phenyl)-2-azaspiro[3.3]heptan-6-ol]	66
